This note sets out measurements from US9102665B2, “Cysteinyl leukotriene antagonists” (Sun Pharma Advanced Research Company Ltd., priority 2011, dated 2015).

This assay has as its target T1, Leukotriene, Cysteinyl CysLT1 (Cavia porcellus, UniProt Q2NNR5).
T1 construct: from tissue; host or cells: guinea pig lung membrane
T1 sequence (Q2NNR5 1-340): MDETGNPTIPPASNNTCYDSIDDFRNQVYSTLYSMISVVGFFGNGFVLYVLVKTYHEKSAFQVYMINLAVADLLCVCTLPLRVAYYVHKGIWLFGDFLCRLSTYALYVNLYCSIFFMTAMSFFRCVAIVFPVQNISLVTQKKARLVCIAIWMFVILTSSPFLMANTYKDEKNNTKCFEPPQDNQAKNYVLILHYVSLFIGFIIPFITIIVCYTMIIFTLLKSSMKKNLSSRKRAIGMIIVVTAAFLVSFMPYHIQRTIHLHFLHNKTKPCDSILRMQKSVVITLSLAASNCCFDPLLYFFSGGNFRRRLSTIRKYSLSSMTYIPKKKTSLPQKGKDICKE
As to the kind of experiment: receptor radio-ligand-binding assay (Tritiated LTD4 as the ligand), Guinea pig lung membrane. The following applies: 0.2 nM 3H LTD4, Guinea pig lung membrane; for inhibition at 0.001 µM / inhibition at 0.003 µM / inhibition at 0.01 µM: 0.5 h; for inhibition at 0.001 µM: read-out: % Inhbition (in nM) 1; for inhibition at 0.003 µM: read-out: % Inhbition (in nM) 3; for inhibition at 0.01 µM: read-out: % Inhbition (in nM) 10. Here is the method:
The primary in-vitro biological screening for the compounds carried-out involving receptor radio-ligand-binding assay (Tritiated LTD4 as the ligand) by known methods described in literature [a). Mong et al. European Journal of Pharmacology (102); 1984 1-11b). Jones et al; Journal of Physiology & Pharmacology (73); 1994, 191-201 c). MDS Pharma Services: 250460 Leukotriene, Cysteinyl CysLT1]. Accordingly, Guinea pig lung membrane (100 ug) is incubated with 0.2 nM 3H LTD4 in presence of Reference Standard/Test item/Vehicle Control. Non Specific Binding is determined by incubating the membrane with 0.2 nM 3H LTD4 in presence of 1 uM of unlabeled LTD4. The samples are incubated at 26° C. for 30 minutes and are vacuum filtered on a membrane to separate the bound and free radioligand. The membrane is counted in a liquid scintillation counter to calculate the bound radioactivity. Specific Binding in Vehicle treated and Reference Standard/Test item treated set is compared to evaluate the % Inhibition values. Some of the compounds have shown >50% inhibition in the presence of ≦3 nano-molar concentration of the compounds of present invention as shown in the following table.

SMILES strings stand for the structures.

In the case of `CS(=O)(=O)NC(CCc1ccccc1C(=O)O)c1cccc(/C=C/c2ccc3ccc(Cl)cc3n2)c1` (stereo not drawn) [Ia.11, 2-(3-{3-[(E)-2-(7-Chloro-quinolin-2-yl)-vinyl]phenyl}-3-methanesulfonylamino-propyl)-benzoic acid], the inhibition at 0.001 µM (1 nM test compound) was determined as 46%. The inhibition at 0.003 µM (3 nM test compound) was found to be 56%. The inhibition at 0.01 µM (10 nM test compound) stood at 71%.

On to `O=C(O)c1ccccc1CCC(NC(=O)C(F)(F)F)c1cccc(/C=C/c2ccc3ccc(Cl)cc3n2)c1` (stereo not drawn) [Ia.12, 2-[3-{3-[(E)-2-(7-Chloro-quinolin-2-yl)-vinyl]-phenyl}-3-(2,2,2-trifluoro-acetylamino)-propyl]-benzoic acid], for which the inhibition at 0.001 µM (1 nM test compound) was 5%. Also, where the note is “3 nM test compound”, the inhibition at 0.003 µM is 35%. Besides, the inhibition at 0.01 µM (10 nM test compound) was 56%.

For the compound `CCN(CC)C(=O)c1ccccc1CCC(NC(=O)c1ccccc1C(=O)O)c1cccc(/C=C/c2ccc3ccc(Cl)cc3n2)c1` (stereo not drawn) [Ia.38, N-[1-{3-[(E)-2-(7-Chloro-quinolin-2-yl)-vinyl]-phenyl}-3-(2-diethylcarbamoyl-phenyl)-propyl]-phthalamic acid], the inhibition at 0.001 µM (1 nM test compound) turned out to be 0.3%. Also, the inhibition at 0.003 µM (3 nM test compound) was determined as 51%. Further, where the note is “10 nM test compound”, the inhibition at 0.01 µM was found to be 69%.

As to `CCN(CC)C(=O)c1ccccc1CCC(NC(=O)c1ccccc1C(=O)OC)c1cccc(/C=C/c2ccc3ccc(Cl)cc3n2)c1` (stereo not drawn) [Ia.48, N-[1-{3-[(E)-2-(7-Chloro-quinolin-2-yl)-vinyl]-phenyl}-3-(2-diethylcarbamoyl-phenyl)-propyl]-phthalamic acid methyl ester], the inhibition at 0.001 µM (1 nM test compound) turned out to be 35%. Also, where the note is “3 nM test compound”, the inhibition at 0.003 µM turned out to be 56%. The inhibition at 0.01 µM (10 nM test compound) worked out at 65%.

With `O=C(N[C@H](CCc1ccccc1C(=O)O)c1cccc(/C=C/c2ccc3ccc(Cl)cc3n2)c1)c1ccco1` [Ia.54, 2-{(R)-3-{3-[(E)-2-(7-Chloro-quinolin-2-yl)-vinyl]-phenyl}-3-[(furan-2-carbonyl)-amino]-propyl}-benzoic acid], where the note is “1 nM test compound”, the inhibition at 0.001 µM was 50%. In addition, the inhibition at 0.003 µM (3 nM test compound) is 60%. Besides, for the setting “10 nM test compound”, the inhibition at 0.01 µM turned out to be 74%.

Regarding `O=C(N[C@@H](CCc1ccccc1C(=O)O)c1cccc(/C=C/c2ccc3ccc(Cl)cc3n2)c1)c1cccs1` [Ia.69, 2-{(S)-3-{3-[(E)-2-(7-Chloro-quinolin-2-yl)-vinyl]-phenyl}-3-[(thiophene-2-carbonyl)-amino]-propyl}-benzoic acid], where the note is “1 nM test compound”, the inhibition at 0.001 µM is 34%. Also, where the note is “3 nM test compound”, the inhibition at 0.003 µM was determined as 56%. Also, the inhibition at 0.01 µM (10 nM test compound) is 72%.

As to `O=C(O)c1ccccc1C(=O)NC(CCc1ccccc1C(=O)N1CCCC1)c1cccc(/C=C/c2ccc3ccc(Cl)cc3n2)c1` (stereo not drawn) [Ia.73, N-{1-{3-[(E)-2-(7-Chloro-quinolin-2-yl)-vinyl]-phenyl}-3-[2-(pyrrolidine-1-carbonyl)-phenyl]-propyl}-phthalamic acid], under “1 nM test compound”, the inhibition at 0.001 µM stood at 40%. Also, the inhibition at 0.003 µM (3 nM test compound) worked out at 67%. Moreover, the inhibition at 0.01 µM (10 nM test compound) worked out at 72%.

As for `CN(C(=O)c1ccco1)C(CCc1ccccc1C(=O)O)c1cccc(/C=C/c2ccc3ccc(Cl)cc3n2)c1` (stereo not drawn) [Ia.76, 2-{3-{3-[(E)-2-(7-Chloro-quinolin-2-yl)-vinyl]-phenyl}-3-[(furan-2-carbonyl)-methyl-amino]-propyl}-benzoic acid], the inhibition at 0.001 µM (1 nM test compound) came out at 37%. Besides, the inhibition at 0.003 µM (3 nM test compound) is 61%. For the same compound, where the note is “10 nM test compound”, the inhibition at 0.01 µM was determined as 67%.

For `COC(=O)c1ccccc1CCC(NC(=O)C1=C(C(=O)O)CCC1)c1cccc(/C=C/c2ccc3ccc(Cl)cc3n2)c1` (stereo not drawn) [Ia.80, 2-(3-[(2-Carboxy-cyclopent-1-enecarbonyl)-amino]-3-{3-[(E)-2-(7-chloro-quinolin-2-yl)-vinyl]-phenyl}-propyl)-benzoic acid methyl ester], the inhibition at 0.001 µM (1 nM test compound) stood at 43%. Besides, the inhibition at 0.003 µM (3 nM test compound) was 64%. Besides, where the note is “10 nM test compound”, the inhibition at 0.01 µM was determined as 65%.

With `CC(=O)OC(CSc1ccccc1C(=O)O)c1cccc(/C=C/c2ccc3ccc(Cl)cc3n2)c1` (stereo not drawn) [Ia.118, 2-(2-Acetoxy-2-{3-[(E)-2-(7-chloro-quinolin-2-yl)-vinyl]-phenyl}-ethylsulfanyl)-benzoic acid], under “1 nM test compound”, the inhibition at 0.001 µM was determined as 33%. Besides, the inhibition at 0.003 µM (3 nM test compound) was 46%. For the same compound, the inhibition at 0.01 µM (10 nM test compound) amounted to 52%.

In the case of `C#CCOC(COc1ccccc1C(=O)O)c1cccc(/C=C/c2ccc3ccc(Cl)cc3n2)c1` (stereo not drawn) [Ia.127, 2-(2-{3-[(E)-2-(7-Chloro-quinolin-2-yl)-vinyl]-phenyl}-2-prop-2-ynyloxy-ethoxy)-benzoic acid], the inhibition at 0.001 µM (1 nM test compound) was 50%. Also, the inhibition at 0.003 µM (3 nM test compound) amounted to 69%. Moreover, where the note is “10 nM test compound”, the inhibition at 0.01 µM is 73%.

Consider `O=C(O)c1ccccc1OCC(OCCc1cccs1)c1cccc(/C=C/c2ccc3ccc(Cl)cc3n2)c1` (stereo not drawn) [Ia.143, 2-[2-{3-[(E)-2-(7-Chloro-quinolin-2-yl)-vinyl]-phenyl}-2-(2-thiophen-2-yl-ethoxy)-ethoxy]-benzoic acid], for which, where the note is “1 nM test compound”, the inhibition at 0.001 µM came to 32%. Further, the inhibition at 0.003 µM (3 nM test compound) worked out at 56%. Moreover, the inhibition at 0.01 µM (10 nM test compound) was found to be 74%.

In the case of `CCOC(COc1ccc(OC)cc1C(=O)NS(C)(=O)=O)c1cccc(/C=C/c2ccc3ccc(Cl)cc3n2)c1` (stereo not drawn) [Ia.157, N-[2-(2-{3-[(E)-2-(7-Chloro-quinolin-2-yl)-vinyl]-phenyl}-2-ethoxy-ethoxy)-5-methoxybenzoyl]-methanesulfonamide], the inhibition at 0.001 µM (1 nM test compound) was 62%. Moreover, the inhibition at 0.003 µM (3 nM test compound) was determined as 72%. Besides, for the setting “10 nM test compound”, the inhibition at 0.01 µM turned out to be 80%.

Regarding `[2H]C([2H])([2H])Oc1ccc(OCC(OCC2CC2)c2cccc(/C=C/c3ccc4ccc(Cl)cc4n3)c2)c(C(=O)O)c1` (stereo not drawn) [Ia.172, 2-(2-{3-[(E)-2-(7-Chloro-quinolin-2-yl)-vinyl]-phenyl}-2-cyclopropylmethoxy-ethoxy)-5-triduetereo methoxy-benzoic acid], where the note is “1 nM test compound”, the “% Inhbition (in nM) 1” value came to 50%. The “% Inhbition (in nM) 3” value (3 nM test compound) was found to be 77%. Moreover, for the setting “10 nM test compound”, the “% Inhbition (in nM) 10” value stood at 88%.

Turning to `C#CCO[C@H](COc1ccc(OC)cc1C(=O)O)c1cccc(/C=C/c2ccc3ccc(Cl)cc3n2)c1` [Ia.185, 2-((S)-2-{3-[(E)-2-(7-Chloro-quinolin-2-yl)-vinyl]-phenyl}-2-prop-2-ynyloxy-ethoxy)-5-methoxy-benzoic acid], the inhibition at 0.001 µM (1 nM test compound) turned out to be 57%. The inhibition at 0.003 µM (3 nM test compound) came out at 60%. In addition, the inhibition at 0.01 µM (10 nM test compound) amounted to 84%.

As to `CCOC(COc1ccc(OC)cc1C(=O)O)c1cccc(/C=C/c2nc3ccccc3s2)c1` (stereo not drawn) [Ia.192, 2-{2-[3-((E)-2-Benzothiazol-2-yl-vinyl)-phenyl]-2-ethoxy-ethoxy}-5-methoxy-benzoic acid], where the note is “1 nM test compound”, the inhibition at 0.001 µM was found to be 38%. Moreover, the inhibition at 0.003 µM (3 nM test compound) came out at 54%. Further, under “10 nM test compound”, the inhibition at 0.01 µM came out at 74%.

Take `CCOC(COc1ccc(OC)cc1C(=O)O)c1cccc(C#Cc2ccc3ccc(Cl)cc3n2)c1` (stereo not drawn) [Ia.199, 2-{2-[3-(7-Chloro-quinolin-2-ylethynyl)-phenyl]-2-ethoxy-ethoxy}-5-methoxy-benzoic acid]: the inhibition at 0.001 µM (1 nM test compound) was 76%. Besides, the inhibition at 0.003 µM (3 nM test compound) was determined as 88%. The inhibition at 0.01 µM (10 nM test compound) was determined as 97%.

For the compound `CCOC(CSc1ncccc1C(=O)O)c1cccc(/C=C/c2ccc3ccc(Cl)cc3n2)c1` (stereo not drawn) [Ia.205, 2-(2-{3-[(E)-2-(7-Chloro-quinolin-2-yl)-vinyl]-phenyl}-2-ethoxy-ethylsulfanyl)-nicotinic acid], the inhibition at 0.001 µM (1 nM test compound) is 46%. The inhibition at 0.003 µM (3 nM test compound) was 49%. In addition, the inhibition at 0.01 µM (10 nM test compound) stood at 70%.
